Experimental data taken from article PMC8854719, “Phase 1A/1B dose-escalation and -expansion study to evaluate the safety, pharmacokinetics, food effects and antitumor activity of pamiparib in advanced solid tumours” (British Journal of Cancer, 2021).

Assays:
[1] = test system: poly(ADP-ribose [PAR]) formation in peripheral blood mononuclear cells (PBMCs); assay: PAR inhibition in PBMCs (ELISA); type: in vivo; settings: Homo sapiens, PBMC; sustained at doses of 10 mg BID or higher
Description: Pamiparib in plasma was measured using a validated liquid chromatography-tandem–mass spectrometry assay with a lower limit of quantification of 1.0 ng/mL. The collection schedule for blood samples used to assess the PK profile is presented in the Supplemental Appendix. Summary PK parameters, including area under the concentration-time curve from time 0 to 9 h (AUC0-9) or infinity (AUC0-inf), maximal plasma concentration (Cmax) and time to maximal plasma concentration (Tmax), were estimated. The pharmacodynamic (PD) activity of pamiparib was explored through the evaluation of poly(ADP-ribose [PAR]) formation in peripheral blood mononuclear cells (PBMCs) after pamiparib administration. The schedule for blood sample collection (PK and PBMCs) and additional assessment information for PAR levels in PBMCs and pharmacodynamic activity is presented in the Supplemental Appendix. Antitumor activity was assessed by radiographic imaging (computed tomography or magnetic resonance imaging) during screening, within 28 days of first pamiparib dose, every 6 weeks in the first 12 months and every 9 weeks thereafter.
Time-matched blood samples (PK and PBMCs) were obtained on Day 1 (predose and 4 hours postdose) and Day 17 (4 hours postdose) of Cycle 1. The PAR levels in PBMCs were measured by a validated ELISA assay using a commercial PARP pharmacodynamic assay kit (Trevigen, Gaithersburg, MD). […]

[2] = design: method as in PMID 33128299; settings: humans; current study and Phase 1 study in ovarian cancer; cited from earlier work

In the case of C[C@]12CCCN1CC1=NNC(=O)c3cc(F)cc4[nH]c2c1c34 [pamiparib], the inhibition at 10 mg [1] is given as roughly 80% and the Bioavailability [2] is given as “high, with near-complete absorption”.
